Laboratory results as given in patent US20160100574A1, “Antimicrobial Compositions Comprising Glyceryl Ethers” (SYMRISE AG, priority 2013, published 2016).

Experiments:
Format in all cases: cell-based
C. albicans = experiment: Challenge test of preserved emulsion, C. albicans
Description: (§1) 1% b.w. of heptylglycerin, benzylglycerin and phenylpropylglycerin, respectively was added to an aqueous emulsion of Glyceryl stearyl citrate (Dracorin CE). The formulations were tested in standard challenge tests against various micro-organisms. The results are shown in Table 1 and indicate the high activity of the actives against yeast and bacteria, but not against mould.

E. coli = experiment: Challenge test of preserved emulsion, E. coli
Description: as §1

P. aeruginosa = experiment: Challenge test of preserved emulsion, P. aeruginosa
Description: as §1

S. aureus = experiment: Challenge test of preserved emulsion, S. aureus
Description: as §1

A. brasiliensis = experiment: Challenge test / synergy (Kull equation), A. brasiliensis
Description: 1% b.w. of heptylglycerin, benzylglycerin and phenylpropylglycerin, respectively was added to an aqueous emulsion of Glyceryl stearyl citrate (Dracorin CE). The formulations were tested in standard challenge tests against various micro-organisms.
To calculate the synergism between compounds of formula (I) and other antimicrobial actives, the Kull equation^1 2 was used
SI=(Cmixture×PA)/CA+(Cmixture×PB)/CB (I)
where SI is the Synergy Index according to Kull^1), 2) CA is the cell count for substance A CB is the cell count for substance B Cmixture is the cell count for the mixture of substances A and B PA is the proportion of the substance A in the mixture PB is the proportion of the substance B in the mixture. ^1 Kull, F. C., Eismann, P. C., Sylvestrowicz, H. D., and R. L. Mayer (1961). Mixtures of Quaternary Ammonium Compounds and Long-chain Fatty Acids as Antifungal Agents. Applied Microbiology 9, 538-541.^2 Steinberg, D.C. (2000). Measuring Synergy. Cosmetics & Toiletries 115 (11), 59-62.
Colony counts of <100 were arbitrarily set to 100, in order to allow for synergy calculations with the above equation. The abbreviation “n.a.” means not applicable.

Staphylococcus aureus = experiment: Minimum inhibitory concentration according to DIN 58940, Staphylococcus aureus; details: Staphylococcus aureus, single antimicrobial agents
Description: (§2) In order to calculate the Synergy Index SI with MIC values, the Kull equation is used as follows:
(§3) SI=(MICmixture×PA)/MICA+(MICmixture×PB)/MICB (II)
(§4) where SI is the Synergy Index according to Kull^1), 2) MICA is the MIC value for substance A MICB is the MIC value for substance B MICmixture is the MIC value for the mixture of substances A and B PA is the proportion of the substance A in the mixture PB is the proportion of the substance B in the mixture. b) Mixtures containing 3 components
(§5) SI=(MICmixture×PA)/MICA+(MICmixture×PB)/MICB+(MICmixture×PC)/MICC
(§6) where SI is the Synergy Index according to Kull^1), 2) MICA is the MIC value for substance A MICB is the MIC value for substance B MICC is the MIC value for substance C MICmixture is the MIC value for the mixture of substances […] PA is the proportion of the substance A in the mixture PB is the proportion of the substance B in the mixture. PC is the proportion of the substance C in the mixture.

Candida albicans = experiment: Minimum inhibitory concentration according to DIN 58940, Candida albicans; details: Candida albicans, single antimicrobial agents
Description: as §2, §3, §4, §5, §6

Aspergillus brasiliensis = experiment: Minimum inhibitory concentration according to DIN 58940, Aspergillus brasiliensis; details: Aspergillus brasiliensis, single antimicrobial agents
Description: as §2, §3, §4, §5, §6

Pseudomonas aeruginosa = experiment: Minimum inhibitory concentration according to DIN 58940, Pseudomonas aeruginosa; details: Pseudomonas aeruginosa, single antimicrobial agents
Description: as §2, §3, §4, §5, §6

Escherichia coli = experiment: Minimum inhibitory concentration according to DIN 58940, Escherichia coli; details: Escherichia coli, single antimicrobial agents, read-out: MIC values E. coli
Description: as §2, §3, §4, §5, §6

[1] = Day 2, 1% b.w. active in aqueous emulsion of Glyceryl stearyl citrate (Dracorin CE)
[2] = Day 7, 1% b.w. active in aqueous emulsion of Glyceryl stearyl citrate (Dracorin CE)
[3] = Day 14, 1% b.w. active in aqueous emulsion of Glyceryl stearyl citrate (Dracorin CE)
[4] = Day 28, 1% b.w. active in aqueous emulsion of Glyceryl stearyl citrate (Dracorin CE)
[5] = Day 0, 1% b.w. active in aqueous emulsion of Glyceryl stearyl citrate (Dracorin CE)

## CCCCCCCOCC(O)CO (centres unmarked) [Heptylglycerin]
C. albicans; [1]
  colony counts Day 2: <100 cfu/g formulation
C. albicans; [2]
  colony counts Day 7: 0 cfu/g formulation
C. albicans; [3]
  colony counts Day 14: 0 cfu/g formulation
C. albicans; [4]
  colony counts Day 28: 0 cfu/g formulation
E. coli; [5]
  colony counts Day 0: 210.000 cfu/g formulation
E. coli; [1]
  colony counts Day 2: 0 cfu/g formulation
E. coli; [2]
  colony counts Day 7: 0 cfu/g formulation
E. coli; [3]
  colony counts Day 14: 0 cfu/g formulation
E. coli; [4]
  colony counts Day 28: 0 cfu/g formulation
P. aeruginosa; [5]
  colony counts Day 0: 250.000 cfu/g formulation
P. aeruginosa; [1]
  colony counts Day 2: 0 cfu/g formulation
P. aeruginosa; [2]
  colony counts Day 7: 0 cfu/g formulation
P. aeruginosa; [3]
  colony counts Day 14: 0 cfu/g formulation
P. aeruginosa; [4]
  colony counts Day 28: 0 cfu/g formulation
S. aureus; [5]
  colony counts Day 0: 230.000 cfu/g formulation
S. aureus; [1]
  colony counts Day 2: 0 cfu/g formulation
S. aureus; [2]
  colony counts Day 7: 0 cfu/g formulation
S. aureus; [3]
  colony counts Day 14: 0 cfu/g formulation
S. aureus; [4]
  colony counts Day 28: 0 cfu/g formulation
A. brasiliensis; [5]
  colony counts Day 0: 220.000 cfu/g formulation
A. brasiliensis; [1]
  colony counts Day 2: 320.000 cfu/g formulation
A. brasiliensis; [3]
  colony counts Day 14: 300.000 cfu/g formulation
A. brasiliensis; [4]
  colony counts Day 28: 170.000 cfu/g formulation
A. brasiliensis; Table 3, day 0, 1.0% total active
  Colony counts day 0: 220.000 cfu/g formulation
A. brasiliensis; Table 3, day 0, relative to day 0, 1.0% total active
  Relative colony counts day 0: 1.0000
A. brasiliensis; Table 3, day 2, 1.0% total active
  Colony counts day 2: 320.000 cfu/g formulation
A. brasiliensis; Table 3, day 2, relative to day 0, 1.0% total active
  Relative colony counts day 2: 1.4545
A. brasiliensis; Table 3, day 7, 1.0% total active
  Colony counts day 7: 340.000 cfu/g formulation
A. brasiliensis; Table 3, day 7, relative to day 0, 1.0% total active
  Relative colony counts day 7: 1.5455
A. brasiliensis; Table 3, day 14, 1.0% total active
  Colony counts day 14: 300.000 cfu/g formulation
A. brasiliensis; Table 3, day 14, relative to day 0, 1.0% total active
  Relative colony counts day 14: 1.3636
A. brasiliensis; Table 3, day 28, 1.0% total active
  Colony counts day 28: 170.000 cfu/g formulation
A. brasiliensis; Table 3, day 28, relative to day 0, <100 set to 100, 1.0% total active
  Relative colony counts day 28: 0.7727
Staphylococcus aureus
  MIC: 2500 µg/mL
Candida albicans
  MIC: 2000 µg/mL
Aspergillus brasiliensis
  MIC: 1000 µg/mL
Pseudomonas aeruginosa
  MIC: 5000 µg/mL
Escherichia coli
  MIC: 2000 µg/mL
